How the values were obtained:
Assay type in all cases: functional
[1] = system: Aspergillus fumigatus; test: Antifungal activity against Aspergillus fumigatus NICM902 at 10 ug/ml after 3 to 4 days by serial dilution method; conditions: read-out: IZ
[2] = system: Candida albicans; test: Antifungal activity against Candida albicans NICM3100 at 10 ug/ml after 3 to 4 days by serial dilution method; conditions: read-out: IZ
[3] = system: Talaromyces marneffei; test: Antifungal activity against Penicillium marneffei after 3 to 4 days by serial dilution method
[4] = system: Klebsiella pneumoniae; test: Antibacterial activity against Klebsiella pneumoniae after 24 hrs at 10 ug/ml by disc diffusion method; conditions: read-out: IZ
[5] = system: Pseudomonas aeruginosa; test: Antibacterial activity against Pseudomonas aeruginosa ATCC 27853 after 24 hrs by disc diffusion method; conditions: ATCC 27853, 24 h
[6] = system: Staphylococcus aureus; test: Antibacterial activity against Staphylococcus aureus ATCC 25923 after 24 hrs by disc diffusion method; conditions: ATCC 25923, 24 h
[7] = system: Klebsiella pneumoniae; test: Antibacterial activity against Klebsiella pneumoniae after 24 hrs by disc diffusion method
[8] = system: Staphylococcus aureus; test: Antibacterial activity against Staphylococcus aureus ATCC 25923 at 10 ug/ml after 24 hrs by disc diffusion method; conditions: ATCC 25923, 24 h, read-out: IZ
[9] = system: Pseudomonas aeruginosa; test: Antibacterial activity against Pseudomonas aeruginosa ATCC 27853 at 10 ug/ml after 24 hrs by disc diffusion method; conditions: ATCC 27853, 24 h, read-out: IZ
[10] = system: Escherichia coli; test: Antibacterial activity against Escherichia coli ATCC 25922 after 24 hrs by disc diffusion method; conditions: ATCC 25922, 24 h
[11] = system: Aspergillus fumigatus; test: Antifungal activity against Aspergillus fumigatus NICM902 after 3 to 4 days by serial dilution method
[12] = system: Escherichia coli; test: Antibacterial activity against Escherichia coli ATCC 25922 after 24 hrs at 10 ug/ml by disc diffusion method; conditions: ATCC 25922, 24 h, read-out: IZ
[13] = system: Aspergillus flavus; test: Antifungal activity against Aspergillus flavus NICM524 after 3 to 4 days by serial dilution method
[14] = system: Candida albicans; test: Antifungal activity against Candida albicans NICM3100 after 3 to 4 days by serial dilution method
[15] = system: Talaromyces marneffei; test: Antifungal activity against Penicillium marneffei at 10 ug/ml after 3 to 4 days by serial dilution method; conditions: read-out: IZ
[16] = system: Aspergillus flavus; test: Antifungal activity against Aspergillus flavus NICM524 at 10 ug/ml after 3 to 4 days by serial dilution method; conditions: read-out: IZ

CSc1ccc(Cc2nn(CN3CCN(C)CC3)c(=S)n2/N=C/c2ccc3c(c2)OCO3)cc1
12.5 µg/mL: MIC [3] | MIC [5] | MIC [7] | MIC [11] | MIC [14]
12 mm: zone of inhibition at 10 µg/mL [9] | zone of inhibition at 10 µg/mL [12]
10 mm: zone of inhibition at 10 µg/mL [1] | zone of inhibition at 10 µg/mL [2] | zone of inhibition at 10 µg/mL [4] | zone of inhibition at 10 µg/mL [8] | zone of inhibition at 10 µg/mL [15] | zone of inhibition at 10 µg/mL [16]
25 µg/mL: MIC [6] | MIC [10] | MIC [13]

COc1ccc(/C=N/n2c(Cc3ccc(SC)cc3)nn(CN3CCOCC3)c2=S)cc1
10 mm: zone of inhibition at 10 µg/mL [2] | zone of inhibition at 10 µg/mL [4] | zone of inhibition at 10 µg/mL [12]
12.5 µg/mL: MIC [3] | MIC [5] | MIC [7] | MIC [11] | MIC [14]
25 µg/mL: MIC [6] | MIC [10] | MIC [13]
12 mm: zone of inhibition at 10 µg/mL [1] | zone of inhibition at 10 µg/mL [8] | zone of inhibition at 10 µg/mL [9] | zone of inhibition at 10 µg/mL [15] | zone of inhibition at 10 µg/mL [16]

CSc1ccc(Cc2nn(CN3CCOCC3)c(=S)n2/N=C/c2ccc(Cl)cc2Cl)cc1
10 mm: zone of inhibition at 10 µg/mL [2] | zone of inhibition at 10 µg/mL [15] | zone of inhibition at 10 µg/mL [16]
23 mm: zone of inhibition at 10 µg/mL [9]
18 mm: zone of inhibition at 10 µg/mL [4] | zone of inhibition at 10 µg/mL [8]
17 mm: zone of inhibition at 10 µg/mL [12]
12.5 µg/mL: MIC [3] | MIC [6] | MIC [10] | MIC [11] | MIC [14]
25 µg/mL: MIC [13]
6 µg/mL: MIC [5] | MIC [7]
12 mm: zone of inhibition at 10 µg/mL [1]

CSc1ccc(Cc2nn(CN3CCOCC3)c(=S)n2/N=C/c2ccc(Cl)cc2)cc1
12.5 µg/mL: MIC [3] | MIC [5] | MIC [7] | MIC [11] | MIC [14]
25 µg/mL: MIC [6] | MIC [10] | MIC [13]
12 mm: zone of inhibition at 10 µg/mL [9]
10 mm: zone of inhibition at 10 µg/mL [1] | zone of inhibition at 10 µg/mL [2] | zone of inhibition at 10 µg/mL [4] | zone of inhibition at 10 µg/mL [8] | zone of inhibition at 10 µg/mL [12] | zone of inhibition at 10 µg/mL [15] | zone of inhibition at 10 µg/mL [16]

COc1ccc(/C=N/n2c(Cc3ccc(SC)cc3)nn(CN3CCN(C)CC3)c2=S)cc1
25 µg/mL: MIC [6] | MIC [10] | MIC [13]
12.5 µg/mL: MIC [3] | MIC [5] | MIC [7] | MIC [11] | MIC [14]
12 mm: zone of inhibition at 10 µg/mL [1] | zone of inhibition at 10 µg/mL [16]
10 mm: zone of inhibition at 10 µg/mL [2] | zone of inhibition at 10 µg/mL [4] | zone of inhibition at 10 µg/mL [8] | zone of inhibition at 10 µg/mL [9] | zone of inhibition at 10 µg/mL [12] | zone of inhibition at 10 µg/mL [15]

Cc1cc(C2CCCCC2)n(O)c(=O)c1.NCCO [CICLOPIROX OLAMINE]
18 mm: zone of inhibition at 10 µg/mL [16]
6 µg/mL: MIC [3] | MIC [11] | MIC [14]
20 mm: zone of inhibition at 10 µg/mL [2] | zone of inhibition at 10 µg/mL [15]
12.5 µg/mL: MIC [13]
22 mm: zone of inhibition at 10 µg/mL [1]

CSc1ccc(Cc2nn(CN3CCN(C)CC3)c(=S)n2/N=C/c2ccc(Cl)cc2Cl)cc1
19 mm: zone of inhibition at 10 µg/mL [8]
18 mm: zone of inhibition at 10 µg/mL [12] | zone of inhibition at 10 µg/mL [15] | zone of inhibition at 10 µg/mL [16]
20 mm: zone of inhibition at 10 µg/mL [2] | zone of inhibition at 10 µg/mL [4]
6 µg/mL: MIC [3] | MIC [5] | MIC [7] | MIC [11] | MIC [14]
25 mm: zone of inhibition at 10 µg/mL [9]
12.5 µg/mL: MIC [6] | MIC [10] | MIC [13]
22 mm: zone of inhibition at 10 µg/mL [1]

CSc1ccc(/C=N/n2c(Cc3ccc(SC)cc3)nn(CN3CCN(C)CC3)c2=S)cc1
25 µg/mL: MIC [6] | MIC [10] | MIC [13]
10 mm: zone of inhibition at 10 µg/mL [2] | zone of inhibition at 10 µg/mL [4] | zone of inhibition at 10 µg/mL [12]
12.5 µg/mL: MIC [3] | MIC [5] | MIC [7] | MIC [11] | MIC [14]
12 mm: zone of inhibition at 10 µg/mL [1] | zone of inhibition at 10 µg/mL [8] | zone of inhibition at 10 µg/mL [9] | zone of inhibition at 10 µg/mL [15] | zone of inhibition at 10 µg/mL [16]

CSc1ccc(Cc2nn(CN3CCN(C)CC3)c(=S)n2/N=C/c2ccc(F)cc2)cc1
12.5 µg/mL: MIC [3] | MIC [5] | MIC [7] | MIC [11] | MIC [14]
10 mm: zone of inhibition at 10 µg/mL [2] | zone of inhibition at 10 µg/mL [4] | zone of inhibition at 10 µg/mL [9] | zone of inhibition at 10 µg/mL [15] | zone of inhibition at 10 µg/mL [16]
25 µg/mL: MIC [6] | MIC [10] | MIC [13]
12 mm: zone of inhibition at 10 µg/mL [1] | zone of inhibition at 10 µg/mL [8] | zone of inhibition at 10 µg/mL [12]

CSc1ccc(/C=N/n2c(Cc3ccc(SC)cc3)nn(CN3CCOCC3)c2=S)cc1
12.5 µg/mL: MIC [3] | MIC [5] | MIC [7] | MIC [11] | MIC [14]
25 µg/mL: MIC [6] | MIC [10] | MIC [13]
10 mm: zone of inhibition at 10 µg/mL [2] | zone of inhibition at 10 µg/mL [8] | zone of inhibition at 10 µg/mL [16]
12 mm: zone of inhibition at 10 µg/mL [1] | zone of inhibition at 10 µg/mL [4] | zone of inhibition at 10 µg/mL [9] | zone of inhibition at 10 µg/mL [12] | zone of inhibition at 10 µg/mL [15]

O=C(O)c1cn(C2CC2)c2cc(N3CCNCC3)c(F)cc2c1=O [CIPROFLOXACIN]
6 µg/mL: MIC [5] | MIC [7]
20 mm: zone of inhibition at 10 µg/mL [2] | zone of inhibition at 10 µg/mL [4] | zone of inhibition at 10 µg/mL [15]
22 mm: zone of inhibition at 10 µg/mL [1]
12.5 µg/mL: MIC [6] | MIC [10]
25 mm: zone of inhibition at 10 µg/mL [9]
19 mm: zone of inhibition at 10 µg/mL [8]
18 mm: zone of inhibition at 10 µg/mL [12] | zone of inhibition at 10 µg/mL [16]

CSc1ccc(Cc2nn(CN3CCN(C)CC3)c(=S)n2/N=C/c2ccc(Cl)cc2)cc1
24 mm: zone of inhibition at 10 µg/mL [9]
18 mm: zone of inhibition at 10 µg/mL [8] | zone of inhibition at 10 µg/mL [12] | zone of inhibition at 10 µg/mL [16]
19 mm: zone of inhibition at 10 µg/mL [2]
6 µg/mL: MIC [3] | MIC [5] | MIC [7] | MIC [11] | MIC [14]
20 mm: zone of inhibition at 10 µg/mL [1] | zone of inhibition at 10 µg/mL [4] | zone of inhibition at 10 µg/mL [15]
12.5 µg/mL: MIC [6] | MIC [10] | MIC [13]

CSc1ccc(Cc2nn(CN3CCN(C)CC3)c(=S)n2/N=C/c2ccc(C)cc2)cc1
12 mm: zone of inhibition at 10 µg/mL [2] | zone of inhibition at 10 µg/mL [9] | zone of inhibition at 10 µg/mL [12] | zone of inhibition at 10 µg/mL [16]
10 mm: zone of inhibition at 10 µg/mL [1] | zone of inhibition at 10 µg/mL [4] | zone of inhibition at 10 µg/mL [8]
12.5 µg/mL: MIC [3] | MIC [5] | MIC [7] | MIC [11] | MIC [14]
11 mm: zone of inhibition at 10 µg/mL [15]
25 µg/mL: MIC [6] | MIC [10] | MIC [13]

CSc1ccc(Cc2nn(CN3CCOCC3)c(=S)n2/N=C/c2ccc(F)cc2)cc1
25 µg/mL: MIC [6] | MIC [10] | MIC [13]
10 mm: zone of inhibition at 10 µg/mL [1] | zone of inhibition at 10 µg/mL [2] | zone of inhibition at 10 µg/mL [16]
12.5 µg/mL: MIC [3] | MIC [5] | MIC [7] | MIC [11] | MIC [14]
12 mm: zone of inhibition at 10 µg/mL [4] | zone of inhibition at 10 µg/mL [8] | zone of inhibition at 10 µg/mL [9] | zone of inhibition at 10 µg/mL [12] | zone of inhibition at 10 µg/mL [15]

CSc1ccc(Cc2nn(CN3CCOCC3)c(=S)n2/N=C/c2ccc(C)cc2)cc1
25 µg/mL: MIC [6] | MIC [10] | MIC [13]
12 mm: zone of inhibition at 10 µg/mL [2] | zone of inhibition at 10 µg/mL [9] | zone of inhibition at 10 µg/mL [16]
10 mm: zone of inhibition at 10 µg/mL [1] | zone of inhibition at 10 µg/mL [4] | zone of inhibition at 10 µg/mL [8] | zone of inhibition at 10 µg/mL [12] | zone of inhibition at 10 µg/mL [15]
12.5 µg/mL: MIC [3] | MIC [5] | MIC [7] | MIC [11] | MIC [14]

CSc1ccc(Cc2nn(CN3CCOCC3)c(=S)n2/N=C/c2ccc3c(c2)OCO3)cc1
12.5 µg/mL: MIC [3] | MIC [5] | MIC [7] | MIC [11] | MIC [14]
12 mm: zone of inhibition at 10 µg/mL [1] | zone of inhibition at 10 µg/mL [9]
25 µg/mL: MIC [6] | MIC [10] | MIC [13]
10 mm: zone of inhibition at 10 µg/mL [2] | zone of inhibition at 10 µg/mL [4] | zone of inhibition at 10 µg/mL [8] | zone of inhibition at 10 µg/mL [12] | zone of inhibition at 10 µg/mL [15] | zone of inhibition at 10 µg/mL [16]
